Test results taken from ChEMBL document CHEMBL1151016, “Synthesis and evaluation of 3-deoxy-D-manno-2-octulosonate-8-phosphate (KDO8P) synthase inhibitors” (Bioorg Med Chem Lett, 1997).

Assay: The compound was tested for inhibitory activity against KDO 8-P synthase by using a KDO 8-P synthase enzymatic assay

Compared with `O=C(O)C1=C[C@H](OCC(O)P(=O)(O)O)[C@H](O)[C@H](O)C1` (stereo partly drawn), `O=C(O)C1=C[C@H](OCCP(=O)(O)O)[C@H](O)[C@H](O)C1` is higher in IC50: 3.8 mM for the first, > 25 mM for the second. The first is the more potent here.

With `O=P(O)(O)OC[C@H]1O[C@H](O)[C@H](O)[C@@H]1O` the IC50 was 4.3 mM.
